Results taken from patent US20210002723A1, “METHODS FOR ASSESSING RESPONSIVENESS TO ASTHMA TREATMENT BASED ON VNN-1 EXPRESSION AND PROMOTER METHYLATION” (Children's Hospital Medical Center, priority 2014, published 2021).

Assays:
[1] = tested on: VNN1−/− mice; test: Experimental asthma model (repeated HDM exposure), response to dexamethasone in VNN1−/− mice; format: in vivo, mouse; settings: dexamethasone 3 mg/kg i.p. last 5 days, mean ± SEM vs HDM-treated group
Protocol: (§1) The VNN1^−/− mice used in this study were described in Pitari et al., FEBS letters 2000; 483:149-54. Age- and sex-matched wild-type BALB/c mice were purchased from Harlan Laboratories (Indianapolis, Ind.). All mice were housed in a specific pathogen-free environment following routine practice.
(§2) Mice were exposed to intranasal doses of HDM (20 ug in 50 ul saline) or saline (0.9% NaCl, 50 ul; control group) 3 times a week for 3 weeks as previously described 18. Mice were treated with intra-peritoneal dexamethasone (3 mg/kg in dimethyl sulfoxide, (DMSO)) or DMSO (100 ul) for the last 5 days of the 3 week model. Airway hyperresponsiveness (AHR) was assessed 24 hours after the last HDM challenge using a flexiVent system (SCIREQ, Montreal, QC, Canada) as previously described. See, e.g., Brandt et al., J Allergy Clin Immunol., 2013; 132:1194-204 e2. Bronchoalveolar lavage fluid (BALF) was collected, processed, and inflammatory cells were quantified analyzed as previously described. See Brandt et al., 2013.
(§3) For the experimental asthma model results, individual AHR, total BALF cell counts and eosinophil percentage in mice treated with HDM plus dexamethasone were compared to and normalized by the corresponding mean value in the HDM-treated group. The data are presented as means±SEM. Difference between the WT and VNN1^−/− group was tested by non-parametric Mann Whitney test. A p-value<0.05 was considered significant. Percentage reduction was used to present the steroid response results.

[2] = tested on: WT mice; test: Experimental asthma model (repeated HDM exposure), response to dexamethasone in wild-type mice; format: in vivo, mouse (BALB/c); settings: dexamethasone 3 mg/kg i.p. last 5 days, mean ± SEM vs HDM-treated group
Protocol: as §1, §2, §3

C[C@@H]1C[C@H]2[C@@H]3CCC4=CC(=O)C=C[C@]4(C)[C@@]3(F)[C@@H](O)C[C@]2(C)[C@@]1(O)C(=O)CO [Dexamethasone, dexamethasone]
average percentage reduction of AHR ([1]; 50 mg/ml methacholine): 55.2±4.9% | average percentage reduction of AHR ([1]; 100 mg/ml methacholine): 53.3% | reduction in eosinophils (BALF) [1]: 36.1% | reduction in total BALF cells [1]: 40.9% | average percentage reduction of AHR ([2]; 50 mg/ml methacholine challenge): 78.1% | average percentage reduction of AHR ([2]; 100 mg/ml methacholine challenge): 80.2% | reduction in eosinophils (BALF) [2]: 83.6±3.7% | reduction in total BALF cells [2]: 70.0±4.3%
